How the values were obtained:
[1] = xn = mol fraction of the nth substance listed; details: 101 kPa, Liquid; for mass density: Vibrating tube method; for speed of sound: Pulse-echo method
[2] = molar heat capacity at constant pressure; xn = mol fraction of the nth substance listed; details: 101 kPa, Liquid, Small sample (50 mg) DSC

COC(=O)OC [dimethyl carbonate] + CCCCCCCC
Details	mass density [kg/m3]	molar heat capacity at constant pressure [J/K/mol]	speed of sound [m/s]
[1], 288.15 K, x1 = 0.05047	715.14	–	–
[1], 288.15 K, x1 = 0.1072	725.36	–	–
[1], 288.15 K, x1 = 0.1969	743.56	–	–
[1], 288.15 K, x1 = 0.2958	766.42	–	–
[1], 288.15 K, x1 = 0.4018	794.6	–	–
[1], 288.15 K, x1 = 0.5011	825	–	–
[1], 288.15 K, x1 = 0.5974	858.8	–	–
[1], 288.15 K, x1 = 0.699	900.18	–	–
[1], 288.15 K, x1 = 0.7982	947.83	–	–
[1], 288.15 K, x1 = 0.8992	1005.83	–	–
[1], 288.15 K, x1 = 0.949	1038.95	–	–
[1], 293.15 K, x1 = 0.05047	710.88	–	–
[1], 293.15 K, x1 = 0.1072	721.13	–	–
[1], 293.15 K, x1 = 0.1969	739.1	–	–
[1], 293.15 K, x1 = 0.2958	761.79	–	–
[1], 293.15 K, x1 = 0.4018	789.7	–	–
[1], 293.15 K, x1 = 0.5011	819.9	–	–
[1], 293.15 K, x1 = 0.5974	853.5	–	–
[1], 293.15 K, x1 = 0.699	894.47	–	–
[1], 293.15 K, x1 = 0.7982	941.92	–	–
[1], 293.15 K, x1 = 0.8992	999.55	–	–
[1], 293.15 K, x1 = 0.949	1032.56	–	–
[1], 298.15 K, x1 = 0.05047	706.69	–	1165
[1], 298.15 K, x1 = 0.1072	716.89	–	1158.1
[1], 298.15 K, x1 = 0.1969	734.68	–	1148.9
[1], 298.15 K, x1 = 0.2958	757.15	–	1141.5
[1], 298.15 K, x1 = 0.4018	784.9	–	1136.1
[1], 298.15 K, x1 = 0.5011	814.8	–	1133.7
[1], 298.15 K, x1 = 0.5974	848.1	–	1134.2
[1], 298.15 K, x1 = 0.699	888.77	–	1138.7
[1], 298.15 K, x1 = 0.7982	935.98	–	1149.1
[1], 298.15 K, x1 = 0.8992	993.3	–	1167.7
[1], 298.15 K, x1 = 0.949	1026.12	–	1180.9
[1], 308.15 K, x1 = 0.05047	698.46	–	–
[1], 308.15 K, x1 = 0.1072	708.37	–	–
[1], 308.15 K, x1 = 0.1969	725.85	–	–
[1], 308.15 K, x1 = 0.2958	747.86	–	–
[1], 308.15 K, x1 = 0.4018	775.1	–	–
[1], 308.15 K, x1 = 0.5011	804.5	–	–
[1], 308.15 K, x1 = 0.5974	837.3	–	–
[1], 308.15 K, x1 = 0.699	877.52	–	–
[1], 308.15 K, x1 = 0.7982	924.07	–	–
[1], 308.15 K, x1 = 0.8992	980.86	–	–
[1], 308.15 K, x1 = 0.949	1013.24	–	–
[2], 288.15 K, x1 = 0.05306	–	245.12	–
[2], 288.15 K, x1 = 0.1016	–	240.86	–
[2], 288.15 K, x1 = 0.2012	–	232.99	–
[2], 288.15 K, x1 = 0.2999	–	225.81	–
[2], 288.15 K, x1 = 0.4012	–	219.02	–
[2], 288.15 K, x1 = 0.4549	–	215.27	–
[2], 288.15 K, x1 = 0.5037	–	211.61	–
[2], 288.15 K, x1 = 0.5561	–	207.58	–
[2], 288.15 K, x1 = 0.6482	–	199.24	–
[2], 288.15 K, x1 = 0.7075	–	192.93	–
[2], 288.15 K, x1 = 0.7982	–	182.94	–
[2], 288.15 K, x1 = 0.8484	–	177.49	–
[2], 288.15 K, x1 = 0.9493	–	167.98	–
[2], 298.15 K, x1 = 0.05306	–	248.71	–
[2], 298.15 K, x1 = 0.1016	–	244.21	–
[2], 298.15 K, x1 = 0.1496	–	240.18	–
[2], 298.15 K, x1 = 0.2012	–	235.89	–
[2], 298.15 K, x1 = 0.2999	–	228.26	–
[2], 298.15 K, x1 = 0.4012	–	220.47	–
[2], 298.15 K, x1 = 0.4549	–	216.32	–
[2], 298.15 K, x1 = 0.5037	–	212.23	–
[2], 298.15 K, x1 = 0.5561	–	207.88	–
[2], 298.15 K, x1 = 0.6482	–	199.37	–
[2], 298.15 K, x1 = 0.7982	–	183.94	–
[2], 298.15 K, x1 = 0.8484	–	178.74	–
[2], 298.15 K, x1 = 0.9493	–	169.06	–
[2], 308.15 K, x1 = 0.05306	–	252.62	–
[2], 308.15 K, x1 = 0.1016	–	248.11	–
[2], 308.15 K, x1 = 0.1496	–	243.91	–
[2], 308.15 K, x1 = 0.2012	–	239.35	–
[2], 308.15 K, x1 = 0.2999	–	231.22	–
[2], 308.15 K, x1 = 0.4012	–	222.77	–
[2], 308.15 K, x1 = 0.4549	–	218.33	–
[2], 308.15 K, x1 = 0.5037	–	213.92	–
[2], 308.15 K, x1 = 0.5561	–	209.21	–
[2], 308.15 K, x1 = 0.5998	–	205.31	–
[2], 308.15 K, x1 = 0.6482	–	200.7	–
[2], 308.15 K, x1 = 0.7982	–	185.39	–
[2], 308.15 K, x1 = 0.8484	–	180.34	–
[2], 308.15 K, x1 = 0.8969	–	175.52	–
[2], 308.15 K, x1 = 0.9493	–	170.5	–
